US20210400971A1, “SAFENING COMPOSITIONS COMPRISING A PHENOXY HERBICIDE AND CLOQUINTOCET FOR CEREAL CROPS AND METHODS THEREOF” (DOW AGROSCIENCES LLC, priority 2018, published 2021)
Like-named read-outs stand apart in the source and are kept apart here.

Assays:
[1] = test system: wheat; details: cited from earlier work
[2] = test system: durum wheat (Triticum durum; TRZDU); assay: 2016 field trial, Alberta: weed-free tolerance trial, visual phytotoxicity (head deformity) on durum wheat
Protocol: (§1) One field trial was conducted in Alberta, Canada in 2016 to evaluate whether wheat injury caused by 2,4-D could be reduced by tank-mixing with a herbicide that is preformulated with cloquintocet acid. 2,4-D was applied as either an ester (660 gae/L 2,4-D EHE) or choline salt (456 gae/L 2,4-D choline) at a rate of 700 gae/ha. […] Some treatments were applied with Intake adjuvant at 1% v/v. Intake is a blend of a non-ionic surfactant and a paraffinic oil and is used to improve the spreading and wetting of herbicides. Herbicide treatments were made to spring wheat (Triticum aestivum) and durum wheat (Triticum durum) at the B12-B13 stage. Head deformity was evaluated at 42, 55 and 71 days after treatment (DAT).
(§2) This trial was established a weed-free tolerance trial. All herbicide treatments were applied post-emergence in the spring (e.g., Jun. 2, 2016). Herbicides were applied with a tractor-mounted sprayer using CO2 as a propellant. The sprayer delivered a uniform spray pattern that provided thorough coverage of the foliage using a 100 L/ha spray volume. Applications were made to spring wheat and durum wheat at the 2-3 leaf stage. Phytotoxicity to wheat was visually assessed as percent overall injury, compared to an untreated control plot. The overall injury assessments were based on visual ratings of growth inhibition, leaf deformity, epinasty, chlorosis, and delay in maturity. The primary injury observed with 2,4-D was head deformity, and therefore those are the only evaluations summarized below. The trial was designed as a randomized complete block with four replicates. Referring now to Table 1, 2,4-D ester (e.g., 2,4-D EHE) and 2,4-D choline at a rate of 700 gae/ha caused head deformity to spring wheat peaking at 8% and to durum wheat peaking at 4%. […] The results provide that cloquintocet (or herbicides containing cloquintocet) could be mixed with 2,4-D ester or choline to reduce head deformity in spring wheat caused by early applications of 2,4-D.

[3] = test system: spring wheat (Triticum aestivum; TRZAS); assay: 2016 field trial, Alberta: weed-free tolerance trial, visual phytotoxicity (head deformity) on spring wheat
Protocol: as §1, §2

[4] = test system: durum wheat (Triticum durum; TRZDU); assay: 2018 field trials, Alberta, Saskatchewan and Manitoba: growth inhibition, head deformity and yield loss on durum wheat; format: in vivo; details: herbicide 700 gae/ha; for % Growth Inhibition (66 DAT) TRZDU / % Head Deformity (66 DAT) TRZDU / % Yield Loss (77 DAT) TRZDU: Field Trial 1; for % Yield Loss (77 DAT) TRZDU: relative to commercial standard REXADE A at 20 gae/ha; for % Growth Inhibition (7 DAT) TRZDU: Field Trial 2; for % Growth Inhibition (14 DAT) TRZDU: Field Trial 3
Protocol: (§3) Growth inhibition was evaluated at 7, 14, and 66 days after treatment (DAT), head deformity was evaluated at 66 days after treatment (DAT), and yield was taken at 77 days after treatment (DAT). All treatments are illustrated in Table 3.
Weed-free tolerance trials were established.

[5] = test system: spring wheat (Triticum aestivum; TRZAS); assay: 2018 field trials, Alberta, Saskatchewan and Manitoba: growth inhibition, head deformity and yield loss on spring wheat; format: in vivo; details: for % Growth Inhibition (66 DAT) TRZAS / % Head Deformity (66 DAT) TRZAS / % Yield Loss (77 DAT) TRZAS: Field Trial 1; for % Growth Inhibition (66 DAT) TRZAS / % Head Deformity (66 DAT) TRZAS / % Yield Loss (77 DAT) TRZAS / % Growth Inhibition (7 DAT) TRZAS / % Growth Inhibition (14 DAT) TRZAS: herbicide 700 gae/ha; for % Yield Loss (77 DAT) TRZAS: relative to commercial standard REXADE A at 20 gae/ha; for % Growth Inhibition (7 DAT) TRZAS: Field Trial 2; for % Growth Inhibition (14 DAT) TRZAS: Field Trial 3
Protocol: as §3
Weed-free tolerance trials were established. […] The primary injury observed with 2,4-D was growth inhibition, head deformity, and yield loss, therefore those are the only evaluations summarized below.

[6] = test system: spring wheat (Triticum aestivum; TRZAS); details: in vivo
Protocol: (§4) Two weed-free tolerance field trials were conducted in Alberta and Manitoba, Canada in 2017 to evaluate whether wheat injury caused by 2,4-D ester could be reduced by tank-mixing with cloquintocet-containing products. […] The rate of cloquintocet parent acid delivered by the tank-mix partners ranged from 3.5 to 63.7 gae/ha. All herbicide treatments were applied post-emergence in the spring (Jun. 16, 2017 to Jun. 26, 2017). Herbicides were applied with tractor- or bicycle-mounted sprayers using CO2 as a propellant. The sprayer delivered a uniform spray pattern that provided thorough coverage of the foliage using a 100 L/ha spray volume. Applications were made to spring wheat (Triticum aestivum) and durum wheat (Triticum durum) at the three-leaf stage. Phytotoxicity to wheat was visually assessed as percent overall injury, compared to an untreated control plot. The overall injury assessments were based on visual ratings of growth inhibition, leaf deformity, epinasty, chlorosis, and delay in maturity. […] Head deformity was evaluated at 10 to 12 weeks after treatment (WAT). The trial was designed as a randomized complete block with four replicates.

[7] = test system: durum wheat (Triticum durum; TRZDU); details: in vivo
Protocol: as §4

[8] = 42 DAT, herbicide 700 gae/ha, safener 0, Intake @1% v/v
[9] = 55 DAT, herbicide 700 gae/ha, safener 0, Intake @1% v/v
[10] = 71 DAT, herbicide 700 gae/ha, safener 0, Intake @1% v/v

2,4-D amine
wheat yield reduction ([1]; applied at Stage 13): 35%
wheat yield reduction ([1]; applied at Stage 44): 15%

O=C(O)COc1ccc(Cl)cc1Cl [2,4-D Choline, 2-hydroxy-N,N,N-trimethylethanaminium 2-(2,4-dichlorophenoxy)acetate]
% TRZDU Head Deformity [2, 8]: 0.0%
% TRZDU Head Deformity [2, 9]: 3.5%
% TRZDU Head Deformity [2, 10]: 0.8%
% TRZAS Head Deformity [3, 8]: 5.8%
% TRZAS Head Deformity [3, 9]: 5.8%
% TRZAS Head Deformity [3, 10]: 3.0%

CCCCC(CC)COC(=O)COc1ccc(Cl)cc1Cl (stereo not drawn) [2,4-D Ester, 2-ethylhexyl 2-(2,4-dichlorophenoxy)acetate]
head deformity to durum wheat, peak ([2]; Triticum durum (durum wheat), in vivo): ≤ 4%
% TRZDU Head Deformity ([2]; Triticum durum (durum wheat), in vivo, 42 days): 0.0%
% TRZDU Head Deformity ([2]; Triticum durum (durum wheat), in vivo, 55 days): 4.3%
% TRZDU Head Deformity ([2]; Triticum durum (durum wheat), in vivo, 71 days): 3.0%
head deformity to spring wheat, peak ([3]; Triticum aestivum (spring wheat), in vivo): ≤ 8%
% TRZAS Head Deformity ([3]; Triticum aestivum (spring wheat), in vivo, 42 days): 6.5%
% TRZAS Head Deformity ([3]; Triticum aestivum (spring wheat), in vivo, 55 days): 7.5%
% TRZAS Head Deformity ([3]; Triticum aestivum (spring wheat), in vivo, 71 days): 7.8%
% Growth Inhibition (66 DAT) TRZDU ([4]; safener 0, Agral 90 @ […]): 1.9%
% Head Deformity (66 DAT) TRZDU ([4]; safener 0, Agral 90 @ […]): 5.3%
% Growth Inhibition (66 DAT) TRZDU ([4]; safener 0, no adjuvant): 2.6%
% Head Deformity (66 DAT) TRZDU ([4]; safener 0, no adjuvant): 5%
% Yield Loss (77 DAT) TRZDU ([4]; safener 0, Agral 90 @ […]): 8.8%
% Yield Loss (77 DAT) TRZDU ([4]; safener 0, no adjuvant): 6.1%
% Growth Inhibition (7 DAT) TRZDU ([4]; safener 0, Agral 90 @ […]): 8.5%
% Growth Inhibition (7 DAT) TRZDU ([4]; safener 0, no adjuvant): 5.5%
% Growth Inhibition (14 DAT) TRZDU ([4]; safener 0, Agral 90 @ […]): 8.5%
% Growth Inhibition (14 DAT) TRZDU ([4]; safener 0, no adjuvant): 7%
injury ([5]; 2018 trials, applied alone or with Agral 90, spring and durum wheat): caused growth inhibition, head deformity and yield loss
% Growth Inhibition (66 DAT) TRZAS ([5]; safener 0, Agral 90 @ […]): 9.1%
% Head Deformity (66 DAT) TRZAS ([5]; safener 0, Agral 90 @ […]): 40%
% Growth Inhibition (66 DAT) TRZAS ([5]; safener 0, no adjuvant): 10.1%
% Head Deformity (66 DAT) TRZAS ([5]; safener 0, no adjuvant): 40%
% Yield Loss (77 DAT) TRZAS ([5]; safener 0, Agral 90 @ […]): 3.3%
% Yield Loss (77 DAT) TRZAS ([5]; safener 0, no adjuvant): 4.5%
% Growth Inhibition (7 DAT) TRZAS ([5]; safener 0, Agral 90 @ […]): 8%
% Growth Inhibition (7 DAT) TRZAS ([5]; safener 0, no adjuvant): 4.5%
% Growth Inhibition (14 DAT) TRZAS ([5]; safener 0, Agral 90 @ […]): 7.5%
% Growth Inhibition (14 DAT) TRZAS ([5]; safener 0, no adjuvant): 7%
head deformity to spring wheat, peak [6]: ≤ 10%
head deformity to durum wheat, peak [7]: ≤ 4%
% TRZDU Head Deformity ([7]; 12 weeks): 0.0%
wheat yield reduction ([1]; applied at Stage 13): 39%
wheat yield reduction ([1]; applied at Stage 44): 16%
